Measured values published in patent US10385103B2, “Cell-permeable (ICP)-SOCS3 recombinant protein and uses thereof” (CELLIVERY THERAPEUTICS, INC., priority 2014, dated 2019).
“Also recorded” adds a separate entry of the source.

Columns and labels:
RAW 264.7 cells [1] = test: Quantitative cell-permeability of FITC-labeled aMTD- or rPeptide-fused CRA recombinant proteins (flow cytometry); type: cell-based; details: for Relative Ratio to aMTD AVE: cell-permeability of rPeptide-fused CRA recombinant protein relative to average of 240 aMTDs
Summary of the method: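 Uptake of fluorescently labeled, peptide-fused cargo proteins was quantified by flow cytometry (Guava, Millipore) and analyzed in FlowJo software. RAW 264.7 cells received 10 μM FITC-labeled protein for 1 hour at 37° C., were rinsed three times with cold PBS, and were trypsinized with 0.25% tripsin/EDTA for 20 minutes at 37° C. to remove bound protein before measurement. Permeability was expressed relative to reference proteins.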

[2] = Solubility/yield of SOCS3 recombinant proteins expressed and purified from E. coli; type: physicochemical
Experimental: Thereafter, the recombinant protein gene-introduced E. coli was inoculated in 7 ml of LB medium, and then incubated at 37° C. overnight. The E. coli was inoculated in 700 ml of LB medium and incubated at 37° C. until OD600 reached 0.6. To this culture medium, 0.6 mM of isopropyl-β-D-thiogalactoside (IPTG, Gen Depot, USA) was added as a protein expression inducer, followed by further incubation at 37° C. for 3 hours. This culture medium was centrifuged at 4° C. and 8,000 rpm for 10 minutes and a supernatant was discarded to recover a cell pellet. The cell pellet thus recovered was suspended in a lysis buffer (100 mM NaH2PO4, 10 mM Tris-HCl, 8 M Urea, pH 8.0), and cells were disrupted by sonication (on/off time: 30 sec/30 sec, on time 2 hours, amplify 40%), and centrifuged at 15,000 rpm for 30 min to obtain a soluble fraction and an insoluble fraction.
After purification, the proteins were put in a SnakeSkin Dialysis Tubing bag (pore size: 10000 mw, Thermo scientific, USA) and then they were dialyzed by physiological buffer (DMEM). The strain lysate where protein expression was not induced, the strain lysate where protein expression was induced by addition of IPTG, and purified proteins were loaded on SDS-PAGE to analyze protein expression characteristics and expression levels (FIGS. 19 and 20).
Solubility of aMTD/SD-fused SOCS3 proteins was scored on a 5 point scale compared with that of SOCS3 proteins lacking the solubilization domain.

RAW 264.7 cells [3] = test: Cell-permeability of FITC-labeled SOCS3 recombinant proteins (flow cytometry); type: cell-based; details: 10 μM FITC-labeled protein, 1 hr, 37° C.
Experimental: To examine cell-permeability of SOCS3 recombinant protein, SOCS3 recombinant proteins were conjugated to 5/6-fluorescein isothiocyanate (FITC). RAW 264.7 (KCLB, Seoul, South Korea) (FIG. 20) or NIH3T3 cells (KCLB, Seoul, South Korea) (FIG. 21) were treated with 10 μM FITC-labeled SOCS3 recombinant proteins and cultivated for 1 hr at 37° C.
In this regard, RAW 264.7 cells were cultured in a DMEM medium containing 10% fetal bovine serum (FBS, Hyclone, USA) and […] of 1% penicillin/streptomycin (Hyclone, USA).
After cultivation, the cells were washed three times with ice-cold PBS (Phosphate-buffered saline, Hyclone, USA) and treated with proteinase K (10 μg/mL, SIGMA, USA) to remove surface-bound proteins, and internalized proteins were measured by flow cytometry (FlowJo cytometric analysis software, Guava, Millipore, Darmstadt, Germany). Untreated cells (gray) and equimolar concentration of unconjugated FITC (FITC only, green)-treated cells were served as control (FIG. 20). Each of NIH3T3 cells was incubated for 1 hour at 37° C. with 10 μM FITC-labeled SOCS3 protein. For nuclear staining, a mixture of […] Mounting Medium (Vector laboratories, Burlingame, Calif.) and DAPI (4′,6-diamidino-2-phenylindole) was added to NIH3T3 cells, and visualized using a confocal laser microscope (LSM700, Zeiss, Germany) (FIG. 21).

AGS cells = test: Induction of apoptosis by Annexin V/7-AAD staining in gastric carcinoma cells; type: cell-based; details: 10 uM, 14 hours
Experimental: AGS cells (gastric carcinoma cell line) (American Type Culture Collection; ATCC) were seeded in a 12-well plate at a density of 1×10^5 cells/well, and then treated with 10 uM of aMTD/SD-fused SOCS3 for 14 hours. Cancer cell death was analyzed by Annexin V analysis. Annexin V/7-Aminoactinomycin D (7-AAD) staining was performed using flow cytometry according to the manufacturer's guidelines (BD Pharmingen, San Diego, Calif., USA). Briefly, cells were washed three times with ice-cold PBS. The cells were then resuspended in 100 μl of binding buffer and incubated with 1 μl of 7-AAD and 1 μl of annexin V-PE for 30 min in the dark at 37° C. Flow cytometric analysis was immediately performed using a guava easyCyte™ 8 Instrument (Merck Millipore, Darmstadt, Germany).

[4] = cell-permeability relative to negative control rP38 (A type), aMTD-fused CRA recombinant protein, 10 μM FITC-labeled, 1 hour, 37° C., RAW 264.7 cells
[5] = cell-permeability relative to reference CPP MTD85 (C type), aMTD-fused CRA recombinant protein, 10 μM FITC-labeled, 1 hour, 37° C., RAW 264.7 cells
[6] = cell-permeability relative to reference CPP MTM12 (B type), aMTD-fused CRA recombinant protein, 10 μM FITC-labeled, 1 hour, 37° C., RAW 264.7 cells
[7] = cell-permeability of aMTD-fused CRA recombinant protein relative to negative control (A: rP38)
[8] = cell-permeability of aMTD-fused CRA recombinant protein relative to reference CPP (B: MTM12)
[9] = cell-permeability of aMTD-fused CRA recombinant protein relative to reference CPP (C: MTD85)
[10] = relative cell-permeability of aMTD vs reference A (not defined)
[11] = relative cell-permeability of aMTD vs reference CPP B: MTM12
[12] = relative cell-permeability of aMTD vs reference CPP C: MTD85
[13] = 10 μM FITC-labeled, 1 hour, 37° C., RAW 264.7 cells

Molecule	Relative Ratio (Fold) A (RAW 264.7 cells [1]; [7])	Relative Ratio (Fold) B (RAW 264.7 cells [1]; [8])	Relative Ratio (Fold) C (RAW 264.7 cells [1]; [9])	other results
883 (LAIVPAAIAALP; Amino acid Sequence of aMTD883) [compound 883]				Relative Ratio (Fold) A (RAW 264.7 cells [1]; [4]): 3.0 Fold; Relative Ratio (Fold) C (RAW 264.7 cells [1]; [5]): 1.0 Fold; Relative Ratio (Fold) B (RAW 264.7 cells [1]; [6]): 2.0 Fold
885 (LVAIAPAVAVLP; Amino acid Sequence of aMTD885) [compound 885]	28.3 Fold	19.0 Fold	9.6 Fold	
887 (VLAVAPAVAVLP; Amino acid Sequence of aMTD887) [compound 887]	7.7 Fold	5.1 Fold	2.6 Fold	
888 (ILAVVAIPAAAP; Amino acid Sequence of aMTD888) [compound 888]	71.0 Fold	47.5 Fold	24.0 Fold	
889 (ILVAAAPIAALP; Amino acid Sequence of aMTD889) [compound 889]	30.3 Fold	20.3 Fold	10.3 Fold	
891 (ILAVAAIPAALP; Amino acid Sequence of aMTD891) [compound 891]	44.7 Fold	29.9 Fold	15.1 Fold	
893 (VIAIPAILAAAP; Amino acid Sequence of aMTD893) [compound 893]				Relative Ratio (Fold) A (RAW 264.7 cells [1]; [4]): 7.0 Fold; Relative Ratio (Fold) C (RAW 264.7 cells [1]; [5]): 2.4 Fold; Relative Ratio (Fold) B (RAW 264.7 cells [1]; [6]): 4.7 Fold
895 (AIIIVVPAIAAP; Amino acid Sequence of aMTD895) [compound 895]	60.8 Fold	40.7 Fold	20.6 Fold	
896 (AILIVVAPIAAP; Amino acid Sequence of aMTD896) [compound 896]	57.5 Fold	38.5 Fold	19.4 Fold	
897 (AVIVPVAIIAAP; Amino acid Sequence of aMTD897) [compound 897]	11.2 Fold	7.5 Fold	3.8 Fold	Relative Ratio (Fold) A (RAW 264.7 cells [1]; [4]): 11.2 Fold; Relative Ratio (Fold) C (RAW 264.7 cells [1]; [5]): 3.8 Fold; Relative Ratio (Fold) B (RAW 264.7 cells [1]; [6]): 7.5 Fold
899 (AVVIALPAVVAP; Amino acid Sequence of aMTD899) [compound 899]	164.2 Fold	109.9 Fold	55.5 Fold	Relative Ratio (Fold) A (RAW 264.7 cells [1]; [10]): 164.2 Fold; Relative Ratio (Fold) B (RAW 264.7 cells [1]; [11]): 109.9 Fold; Relative Ratio (Fold) C (RAW 264.7 cells [1]; [12]): 55.5 Fold
900 (ALVAVIAPVVAP; Amino acid Sequence of aMTD900) [compound 900]	34.3 Fold	22.9 Fold	11.6 Fold	
901 (ALVAVLPAVAVP; Amino acid Sequence of aMTD901) [compound 901]	7.7 Fold	5.1 Fold	2.6 Fold	
902 (ALVAPLLAVAVP; Amino acid Sequence of aMTD902) [compound 902]	7.6 Fold	5.1 Fold	2.6 Fold	
904 (AVLAVVAPVVAP; Amino acid Sequence of aMTD904) [compound 904]	106.7 Fold	70.8 Fold	35.8 Fold	Relative Ratio (Fold) A (RAW 264.7 cells [1]; [10]): 105.7 Fold
905 (AVIAVAPLVVAP; Amino acid Sequence of aMTD905) [compound 905]	44.0 Fold	29.5 Fold	14.9 Fold	
906 (AVIALAPVVVAP; Amino acid Sequence of aMTD906) [compound 906]				Relative Ratio (Fold) A (RAW 264.7 cells [1]; [4]): 6.8 Fold; Relative Ratio (Fold) C (RAW 264.7 cells [1]; [5]): 2.3 Fold; Relative Ratio (Fold) B (RAW 264.7 cells [1]; [6]): 4.6 Fold
910 (VAALLPAVVVAP; Amino acid Sequence of aMTD910) [compound 910]	149.5 Fold	99.4 Fold	50.2 Fold	
911 (VALALPAVVVAP; Amino acid Sequence of aMTD911) [compound 911]	84.8 Fold	56.8 Fold	28.7 Fold	Relative Ratio (Fold) A (RAW 264.7 cells [1]; [10]): 84.8 Fold; Relative Ratio (Fold) B (RAW 264.7 cells [1]; [11]): 56.8 Fold; Relative Ratio (Fold) C (RAW 264.7 cells [1]; [12]): 28.7 Fold
921 (IWWFVVLPLVVP; Amino acid Sequence of rPeptide ID 921) [compound 921]				Relative Ratio to aMTD AVE (RAW 264.7 cells [1]; [13]): 0.14; Relative Ratio (Fold) A (RAW 264.7 cells [1]; relative cell-permeability of rPeptide vs reference A (not defined)): 2.8 Fold; Relative Ratio (Fold) B (RAW 264.7 cells [1]; relative cell-permeability of rPeptide vs reference CPP B: MTM12): 1.9 Fold; Relative Ratio (Fold) C (RAW 264.7 cells [1]; relative cell-permeability of rPeptide vs reference CPP C: MTD85): 0.9 Fold
934 (LILAPAAVVAAA; Amino acid Sequence of rPeptide ID 934) [compound 934]				Relative Ratio to aMTD AVE (RAW 264.7 cells [1]; [13]): 0.28
938 (VPVLLPVVVPVP; Amino acid Sequence of rPeptide ID 938) [compound 938]				Relative Ratio to aMTD AVE (RAW 264.7 cells [1]; [13]): 0.28
964 (ALLVIAPAIAVP; Amino acid Sequence of aMTD864) [compound 964]	8.2 Fold	4.8 Fold	2.8 Fold	
M165S3B: his-tag-removed aMTD165-SOCS3-SDB recombinant protein (protein, Amino acid sequence of E.coli codon usage optimized M165S3B′, his-tag-removed aMTD165-SOCS3-SDB recombinant protein) ALAVPVALAIVPVTHSKFPAAGMSRPLDTSLRLKTFSSKSEYQLVVNAVRKLQESGFYWSAVTGGEANLLLSAEPAGTFLIRDSSDQRHFFTLSVKTQSGTKNLRIQCEGGSFSLQSDPRSTQPVPRFDCVLKLVHHYMPPPGAPSFPSPPTEPSSEVPEQPSAQPLPGSPPRRAYYIYSGGEKIPLVLSRPLSSNVATLQHLCRKTVNGHLDSYEKVTQLPGPIREFLDQYDAPLMAEQSDKDVKYYTLEEIQKHKDSKSTWLILHHKVYDLTKFLEEHPGGEEVLGEQAGGDATENFEDVGHSTDARELSKTYIIGELHPDDRSKIAKPSETL				solubility/yield [2]: high solubility/yield; cell-permeability (protein uptake) (RAW 264.7 cells [3]): high cell permeability; induction of apoptosis (Annexin V) (AGS cells): showed high anticancer efficacy; also recorded: efficacy equivalent to or higher than HM165S3B
